Source: PMC5564600 (Oncotarget, 2017)

How the values were obtained:
Assay in all cases: biochemical
Format in all cases: binding
panel of 442 kinases [1] = target: T1, panel of 442 kinases (Homo sapiens, UniProt O00238); details: BMPR1B; for remaining activity at 1 µM: read-out: % of control at 1 µM
T1 construct: purchased Ambit Biosciences (scanMAXX KINOMEscan)

panel of 442 kinases [2] = target: T2, panel of 442 kinases (Homo sapiens, UniProt Q9UKE5); details: kinase TNIK; for remaining activity at 1 µM: read-out: TNIK (% of control at 1 µM)
T2 construct: purchased Ambit Biosciences (scanMAXX KINOMEscan)
T2 sequence (Q9UKE5 whole entry): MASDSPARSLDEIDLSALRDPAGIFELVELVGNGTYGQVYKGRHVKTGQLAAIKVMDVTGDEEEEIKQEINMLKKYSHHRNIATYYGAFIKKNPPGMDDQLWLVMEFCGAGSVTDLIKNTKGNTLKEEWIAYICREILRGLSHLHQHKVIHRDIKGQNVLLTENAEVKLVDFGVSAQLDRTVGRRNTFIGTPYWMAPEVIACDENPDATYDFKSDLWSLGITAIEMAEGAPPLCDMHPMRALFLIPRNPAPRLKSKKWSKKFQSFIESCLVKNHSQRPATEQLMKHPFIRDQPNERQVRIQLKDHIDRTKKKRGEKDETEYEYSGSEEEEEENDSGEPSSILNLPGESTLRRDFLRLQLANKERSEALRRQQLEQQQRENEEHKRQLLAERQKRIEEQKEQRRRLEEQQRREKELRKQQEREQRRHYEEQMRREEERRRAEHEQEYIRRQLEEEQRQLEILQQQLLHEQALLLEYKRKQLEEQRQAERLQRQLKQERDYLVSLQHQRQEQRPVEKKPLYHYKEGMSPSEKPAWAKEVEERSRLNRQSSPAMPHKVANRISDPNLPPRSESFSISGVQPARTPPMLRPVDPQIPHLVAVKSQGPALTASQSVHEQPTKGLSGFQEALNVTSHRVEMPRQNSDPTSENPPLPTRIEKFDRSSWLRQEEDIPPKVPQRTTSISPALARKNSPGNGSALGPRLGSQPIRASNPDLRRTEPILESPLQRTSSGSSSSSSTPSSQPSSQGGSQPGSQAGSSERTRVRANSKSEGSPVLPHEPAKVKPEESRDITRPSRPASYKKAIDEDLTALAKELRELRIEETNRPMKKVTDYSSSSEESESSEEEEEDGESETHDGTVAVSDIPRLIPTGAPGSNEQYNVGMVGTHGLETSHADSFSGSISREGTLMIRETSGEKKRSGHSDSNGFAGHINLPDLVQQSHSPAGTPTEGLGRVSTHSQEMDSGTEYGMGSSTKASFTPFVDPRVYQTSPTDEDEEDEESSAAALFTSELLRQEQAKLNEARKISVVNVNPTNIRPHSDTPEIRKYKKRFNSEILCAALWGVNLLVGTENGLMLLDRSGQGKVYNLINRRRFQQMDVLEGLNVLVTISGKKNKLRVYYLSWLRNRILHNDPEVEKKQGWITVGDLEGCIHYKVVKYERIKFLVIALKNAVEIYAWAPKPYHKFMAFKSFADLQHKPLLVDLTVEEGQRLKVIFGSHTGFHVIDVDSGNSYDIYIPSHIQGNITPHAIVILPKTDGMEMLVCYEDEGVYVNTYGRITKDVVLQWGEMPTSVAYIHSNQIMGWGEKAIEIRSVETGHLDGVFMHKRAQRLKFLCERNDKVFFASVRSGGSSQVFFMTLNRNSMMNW

panel of 442 kinases [3] = target: T3, panel of 442 kinases (Homo sapiens, UniProt Q8NEV4); details: kinase MYO3A; for remaining activity at 1 µM: read-out: % of control at 1 µM
T3 construct: purchased Ambit Biosciences (scanMAXX KINOMEscan)
T3 sequence (Q8NEV4 whole entry): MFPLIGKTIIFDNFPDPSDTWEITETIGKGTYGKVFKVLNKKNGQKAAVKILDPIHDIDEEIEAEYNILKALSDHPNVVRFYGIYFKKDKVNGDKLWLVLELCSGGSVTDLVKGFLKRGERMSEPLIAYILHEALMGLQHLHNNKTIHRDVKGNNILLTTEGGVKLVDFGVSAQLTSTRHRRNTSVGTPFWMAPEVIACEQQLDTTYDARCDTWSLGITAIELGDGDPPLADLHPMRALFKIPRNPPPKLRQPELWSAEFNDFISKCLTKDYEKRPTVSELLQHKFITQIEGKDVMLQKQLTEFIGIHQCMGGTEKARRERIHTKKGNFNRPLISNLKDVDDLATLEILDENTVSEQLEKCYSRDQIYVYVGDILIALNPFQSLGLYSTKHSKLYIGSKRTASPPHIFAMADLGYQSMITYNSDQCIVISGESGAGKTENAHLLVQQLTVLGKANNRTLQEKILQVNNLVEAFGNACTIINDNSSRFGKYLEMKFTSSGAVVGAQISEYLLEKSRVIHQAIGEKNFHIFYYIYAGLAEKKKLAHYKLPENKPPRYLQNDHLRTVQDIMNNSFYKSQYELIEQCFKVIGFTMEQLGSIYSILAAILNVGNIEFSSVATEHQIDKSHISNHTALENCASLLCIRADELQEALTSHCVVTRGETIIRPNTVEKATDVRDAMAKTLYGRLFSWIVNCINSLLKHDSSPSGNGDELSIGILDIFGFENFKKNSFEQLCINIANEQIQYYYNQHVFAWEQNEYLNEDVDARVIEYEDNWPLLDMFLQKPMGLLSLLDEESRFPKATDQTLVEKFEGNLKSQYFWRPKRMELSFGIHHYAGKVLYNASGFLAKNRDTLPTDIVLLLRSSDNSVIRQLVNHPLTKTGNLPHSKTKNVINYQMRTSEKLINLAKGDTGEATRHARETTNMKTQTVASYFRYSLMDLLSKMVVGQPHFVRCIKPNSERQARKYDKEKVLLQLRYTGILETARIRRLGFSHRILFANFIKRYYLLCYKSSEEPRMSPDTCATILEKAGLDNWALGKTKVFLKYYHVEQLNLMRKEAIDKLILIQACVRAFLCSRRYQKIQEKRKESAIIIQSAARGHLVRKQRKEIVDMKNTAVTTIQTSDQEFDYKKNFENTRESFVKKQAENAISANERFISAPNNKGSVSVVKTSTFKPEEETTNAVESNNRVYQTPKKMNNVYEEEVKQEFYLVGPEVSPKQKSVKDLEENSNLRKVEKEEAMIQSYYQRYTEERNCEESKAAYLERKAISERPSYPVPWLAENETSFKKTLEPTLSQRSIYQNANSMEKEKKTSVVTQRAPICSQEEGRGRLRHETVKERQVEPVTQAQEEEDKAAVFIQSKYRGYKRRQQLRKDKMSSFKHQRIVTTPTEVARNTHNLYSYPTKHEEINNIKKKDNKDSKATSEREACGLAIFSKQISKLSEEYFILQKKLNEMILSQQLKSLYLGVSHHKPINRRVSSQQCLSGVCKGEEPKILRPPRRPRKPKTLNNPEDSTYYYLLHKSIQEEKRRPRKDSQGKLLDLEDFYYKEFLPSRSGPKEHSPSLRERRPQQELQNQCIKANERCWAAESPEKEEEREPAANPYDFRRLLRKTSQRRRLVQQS

panel of 442 kinases [4] = target: T4, panel of 442 kinases (Homo sapiens, UniProt Q8IW41); details: kinase MAPKAPK5; for remaining activity at 1 µM: read-out: % of control at 1 µM
T4 construct: purchased Ambit Biosciences (scanMAXX KINOMEscan)
T4 sequence (Q8IW41 1-473): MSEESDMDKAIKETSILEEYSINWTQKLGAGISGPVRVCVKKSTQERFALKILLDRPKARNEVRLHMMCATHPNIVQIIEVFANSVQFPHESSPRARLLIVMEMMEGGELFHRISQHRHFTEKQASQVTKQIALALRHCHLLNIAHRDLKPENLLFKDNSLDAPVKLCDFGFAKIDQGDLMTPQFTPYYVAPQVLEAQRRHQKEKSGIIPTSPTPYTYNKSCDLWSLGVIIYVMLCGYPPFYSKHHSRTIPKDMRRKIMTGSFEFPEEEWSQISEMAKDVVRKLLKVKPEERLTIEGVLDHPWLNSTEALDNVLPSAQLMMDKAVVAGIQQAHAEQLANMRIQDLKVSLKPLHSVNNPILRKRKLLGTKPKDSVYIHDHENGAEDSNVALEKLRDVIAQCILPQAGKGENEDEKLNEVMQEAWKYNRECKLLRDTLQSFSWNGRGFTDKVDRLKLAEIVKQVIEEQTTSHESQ

panel of 442 kinases [5] = target: T5, panel of 442 kinases (Plasmodium falciparum, UniProt P61075); details: kinase PFPK5(P.falciparum); for remaining activity at 1 µM: read-out: % of control at 1 µM; for remaining activity at 10 µM: read-out: % of control at 10 µM
T5 construct: purchased Ambit Biosciences (scanMAXX KINOMEscan)
T5 sequence (P61075 whole entry): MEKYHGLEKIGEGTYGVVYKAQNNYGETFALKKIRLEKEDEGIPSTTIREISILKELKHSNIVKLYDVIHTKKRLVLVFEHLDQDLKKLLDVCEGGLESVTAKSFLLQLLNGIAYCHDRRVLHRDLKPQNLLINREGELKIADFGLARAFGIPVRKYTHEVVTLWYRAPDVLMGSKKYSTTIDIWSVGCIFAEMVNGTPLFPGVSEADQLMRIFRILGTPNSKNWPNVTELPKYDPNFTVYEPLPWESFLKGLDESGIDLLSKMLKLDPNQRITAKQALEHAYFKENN

panel of 442 kinases [6] = target: T6, panel of 442 kinases (Homo sapiens, UniProt O15530); details: kinase PDPK1; for remaining activity at 1 µM: read-out: % of control at 1 µM
T6 construct: purchased Ambit Biosciences (scanMAXX KINOMEscan)
T6 sequence (O15530 1-556): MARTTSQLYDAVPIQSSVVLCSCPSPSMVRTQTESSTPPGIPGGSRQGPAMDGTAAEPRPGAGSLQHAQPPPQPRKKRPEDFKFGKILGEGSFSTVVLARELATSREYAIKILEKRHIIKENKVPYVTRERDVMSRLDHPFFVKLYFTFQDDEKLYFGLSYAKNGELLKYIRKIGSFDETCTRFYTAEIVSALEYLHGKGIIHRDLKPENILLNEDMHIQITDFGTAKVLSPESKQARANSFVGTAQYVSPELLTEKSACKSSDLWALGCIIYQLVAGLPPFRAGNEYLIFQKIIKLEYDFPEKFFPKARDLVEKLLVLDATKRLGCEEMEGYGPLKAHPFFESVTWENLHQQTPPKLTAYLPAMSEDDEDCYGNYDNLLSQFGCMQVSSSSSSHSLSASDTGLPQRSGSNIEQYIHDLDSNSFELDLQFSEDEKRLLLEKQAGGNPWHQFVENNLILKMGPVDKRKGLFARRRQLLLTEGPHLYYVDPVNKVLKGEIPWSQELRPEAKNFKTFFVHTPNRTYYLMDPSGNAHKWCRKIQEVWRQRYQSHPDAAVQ

panel of 442 kinases [7] = target: T7, panel of 442 kinases (Homo sapiens, UniProt Q16816); details: kinase PHKG1; for remaining activity at 1 µM: read-out: % of control at 1 µM
T7 construct: purchased Ambit Biosciences (scanMAXX KINOMEscan)
T7 sequence (Q16816 whole entry): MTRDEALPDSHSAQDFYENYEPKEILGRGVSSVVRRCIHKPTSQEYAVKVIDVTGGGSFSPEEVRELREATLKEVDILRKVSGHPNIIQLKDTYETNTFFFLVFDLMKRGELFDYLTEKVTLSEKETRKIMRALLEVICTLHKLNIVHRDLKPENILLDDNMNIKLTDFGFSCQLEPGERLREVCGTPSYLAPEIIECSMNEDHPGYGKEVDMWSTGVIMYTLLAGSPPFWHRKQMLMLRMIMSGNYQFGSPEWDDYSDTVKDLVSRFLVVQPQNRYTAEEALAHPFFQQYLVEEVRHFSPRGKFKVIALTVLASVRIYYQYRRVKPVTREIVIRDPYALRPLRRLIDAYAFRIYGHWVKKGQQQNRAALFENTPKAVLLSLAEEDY

panel of 442 kinases [8] = target: T8, panel of 442 kinases (Homo sapiens, UniProt P51817); details: kinase PRKX; for remaining activity at 1 µM: read-out: PRKX (% of control at 1 µM)
T8 construct: purchased Ambit Biosciences (scanMAXX KINOMEscan)
T8 sequence (P51817 1-358): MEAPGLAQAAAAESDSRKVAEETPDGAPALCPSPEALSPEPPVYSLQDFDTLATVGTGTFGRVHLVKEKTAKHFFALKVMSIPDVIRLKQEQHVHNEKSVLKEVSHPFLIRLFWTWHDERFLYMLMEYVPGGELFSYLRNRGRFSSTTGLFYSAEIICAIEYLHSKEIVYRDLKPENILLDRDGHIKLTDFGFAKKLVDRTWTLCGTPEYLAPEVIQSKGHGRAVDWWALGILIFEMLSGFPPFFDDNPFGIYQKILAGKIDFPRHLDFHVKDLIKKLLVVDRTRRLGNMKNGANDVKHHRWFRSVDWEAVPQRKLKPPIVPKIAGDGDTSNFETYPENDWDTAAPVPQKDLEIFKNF

panel of 442 kinases [9] = target: T9, panel of 442 kinases (Homo sapiens, UniProt Q6PHR2); details: kinase ULK3; for remaining activity at 1 µM: read-out: ULK3 (% of control at 1 µM)
T9 construct: purchased Ambit Biosciences (scanMAXX KINOMEscan)
T9 sequence (Q6PHR2 1-472): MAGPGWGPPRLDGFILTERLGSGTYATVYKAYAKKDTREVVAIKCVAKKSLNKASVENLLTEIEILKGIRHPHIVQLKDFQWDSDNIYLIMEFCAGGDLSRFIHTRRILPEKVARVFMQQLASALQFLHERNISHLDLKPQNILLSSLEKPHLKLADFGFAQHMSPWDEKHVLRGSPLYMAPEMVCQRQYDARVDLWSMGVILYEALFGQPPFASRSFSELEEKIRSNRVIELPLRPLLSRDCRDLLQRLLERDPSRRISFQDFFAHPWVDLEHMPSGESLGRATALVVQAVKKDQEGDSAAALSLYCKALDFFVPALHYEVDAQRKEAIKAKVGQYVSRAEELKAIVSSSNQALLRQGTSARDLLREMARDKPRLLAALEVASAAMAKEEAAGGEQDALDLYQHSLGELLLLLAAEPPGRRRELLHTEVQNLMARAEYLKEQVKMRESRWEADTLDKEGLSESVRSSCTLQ

[10] = 10 µM, read-out: % of control at 10 µM

T1 sequence (O00238 14-502): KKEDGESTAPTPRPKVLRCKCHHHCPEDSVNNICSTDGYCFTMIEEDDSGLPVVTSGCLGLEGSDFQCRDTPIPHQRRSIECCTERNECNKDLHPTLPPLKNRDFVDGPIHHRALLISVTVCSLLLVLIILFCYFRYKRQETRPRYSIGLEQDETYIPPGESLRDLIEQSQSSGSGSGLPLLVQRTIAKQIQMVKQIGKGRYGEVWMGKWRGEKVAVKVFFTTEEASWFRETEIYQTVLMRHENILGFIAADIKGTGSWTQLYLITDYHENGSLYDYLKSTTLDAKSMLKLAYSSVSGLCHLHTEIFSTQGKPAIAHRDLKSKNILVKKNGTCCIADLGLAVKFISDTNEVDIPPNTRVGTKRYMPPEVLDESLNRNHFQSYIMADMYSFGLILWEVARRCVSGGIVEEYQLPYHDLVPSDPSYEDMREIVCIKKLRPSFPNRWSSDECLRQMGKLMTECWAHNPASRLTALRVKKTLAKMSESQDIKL

| SMILES | remaining activity at 1 µM (panel of 442 kinases [1]) [%] | remaining activity at 10 µM (panel of 442 kinases [1]; [10]) [%] | remaining activity at 1 µM (panel of 442 kinases [2]) [%] | remaining activity at 10 µM (panel of 442 kinases [2]; 10 µM, read-out: TNIK (% of control at 10 µM)) [%] | remaining activity at 1 µM (panel of 442 kinases [3]) [%] | remaining activity at 10 µM (panel of 442 kinases [3]; [10]) [%] | remaining activity at 1 µM (panel of 442 kinases [4]) [%] | remaining activity at 10 µM (panel of 442 kinases [4]; [10]) [%] | remaining activity at 1 µM (panel of 442 kinases [5]) [%] | remaining activity at 10 µM (panel of 442 kinases [5]) [%] | remaining activity at 1 µM (panel of 442 kinases [6]) [%] | remaining activity at 10 µM (panel of 442 kinases [6]; [10]) [%] | remaining activity at 1 µM (panel of 442 kinases [7]) [%] | remaining activity at 10 µM (panel of 442 kinases [7]; [10]) [%] | remaining activity at 1 µM (panel of 442 kinases [8]) [%] | remaining activity at 10 µM (panel of 442 kinases [8]; 10 µM, read-out: PRKX (% of control at 10 µM)) [%] | remaining activity at 1 µM (panel of 442 kinases [9]) [%] | remaining activity at 10 µM (panel of 442 kinases [9]; 10 µM, read-out: ULK3 (% of control at 10 µM)) [%] |
| --- | --- | --- | --- | --- | --- | --- | --- | --- | --- | --- | --- | --- | --- | --- | --- | --- | --- | --- |
| Nc1cc(C(F)(F)F)c(-c2cc(N3CCOCC3)nc(N3CCOCC3)n2)cn1 [Buparlisib] | 100 | 100 | 100 | 100 | 90 | 100 | 100 | 100 | 100 | 100 | 89 | 100 | 99 | 100 | 100 | 100 | 100 | 100 |
| Cn1c(=O)n(-c2ccc(C(C)(C)C#N)cc2)c2c3cc(-c4cnc5ccccc5c4)ccc3ncc21 [Dactolisib, 2-methyl-2-[4-(3-methyl-2-oxo-8-quinolin-3-yl-2,3-dihydroimidazo[4,5-c]quinolin-1-yl)-phenyl] propionitrile] | 91 |  |  |  | 88 |  | 100 |  | 100 |  | 90 |  | 100 |  | 77 |  | 100 |  |
| COc1ncc(-c2ccc3nccc(-c4ccnnc4)c3c2)cc1NS(=O)(=O)c1ccc(F)cc1F [Omipalisib] | 87 |  | 100 |  | 100 |  | 100 |  | 100 |  | 96 |  | 86 |  | 100 |  | 100 |  |
| CS(=O)(=O)N1CCN(Cc2cc3nc(-c4cccc5[nH]ncc45)nc(N4CCOCC4)c3s2)CC1 [Pictilisib, 2-(1H-indazol-4-yl)-6-(4-methanesulfonyl-piperazin-1-ylmethyl)-4-morpholin-4-yl-t hieno[3,2-d]pyrimidine] |  |  |  |  |  |  |  |  | 92 | 100 |  |  |  |  |  |  |  |  |
| FC(F)c1nc2ccccc2n1-c1nc(N2CCOCC2)nc(N2CCOCC2)n1 [ZSTK474, 2-(difluoromethyl)-1-[4,6-di(4-morpholinyl)-1,3,5-triazin-2-yl]-1H-benzimidazole] | 94 |  | 100 |  | 99 |  | 100 |  | 100 |  | 100 |  | 100 |  | 100 |  | 97 |  |
